The assay has as its target T1, human mAChR M1 (Homo sapiens, UniProt P11229).
T1 sequence (P11229 1-460): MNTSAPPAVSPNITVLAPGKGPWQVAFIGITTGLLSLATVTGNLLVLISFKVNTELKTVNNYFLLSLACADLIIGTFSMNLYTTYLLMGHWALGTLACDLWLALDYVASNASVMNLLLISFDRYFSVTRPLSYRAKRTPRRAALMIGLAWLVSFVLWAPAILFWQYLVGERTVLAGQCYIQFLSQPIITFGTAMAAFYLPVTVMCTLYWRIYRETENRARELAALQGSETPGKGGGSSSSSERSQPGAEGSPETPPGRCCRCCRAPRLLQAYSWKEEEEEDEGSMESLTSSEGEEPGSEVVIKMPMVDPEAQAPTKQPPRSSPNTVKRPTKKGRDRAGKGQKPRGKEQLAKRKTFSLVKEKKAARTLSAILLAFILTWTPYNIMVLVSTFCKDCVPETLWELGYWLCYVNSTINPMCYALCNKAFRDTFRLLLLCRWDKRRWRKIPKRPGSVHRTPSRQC
Briefly: mAChR M1 cell-based functional assay (calcium mobilization, PAM mode). The conditions noted are these: CHO-K1 cells stably expressing hM1, calcium flux (Fluo-4); for EC50: concentration-dependent increase in the EC20 acetylcholine response; for Emax: potentiation of EC20 acetylcholine response. The text has this: Chinese hamster ovary (CHO-K1) cells stably expressing rat (r)M1 were purchased from the American Type Culture Collection and cultured according to their indicated protocol. CHO cells stably expressing human (h)M2, hM3, and hM5 were described previously (Levey, et al., 1991); hM1 and hM4 cDNAs were purchased from Missouri S&T cDNA Resource; rM4 cDNA was provided by T. I. Bonner (National Institutes of Health, Bethesda, MD). rM2 and rM3 were cloned from a rat brain cDNA library and sequence verified. hM1, rM2, rM3, hM4, and rM4 cDNAs were used to stably transfect CHO-K1 cells purchased from the American Type Culture Collection using Lipofectamine2000. To make stable rM2, hM2, rM3, hM4, and rM4 cell lines for use in calcium mobilization assays, these cells also were stably transfected with a chimeric G-protein (Gqi5) (provided by B. R. Conklin, University of California, San Francisco) using Lipofectamine 2000. rM1, hM1, rM3, hM3, rM5, and hM5 cells were grown in Ham's F-12 medium containing 10% heat-inactivated fetal bovine serum (FBS), 20 mM HEPES, and 50 μg/mL G418 sulfate. rM2-Gqi5, hM2-Gqi5, and hM4-Gqi5 cells were grown in the same medium also containing 500 μg/mL Hygromycin B. Stable rM4-Gqi5 cells were grown in DMEM containing 10% heat-inactivated FBS, 20 mM HEPES, 400 μg/mL G418 sulfate, and 500 μg/mL Hygromycin B.
For high throughput measurement of agonist-evoked increases in intracellular calcium, CHO-K1 cells stably expressing muscarinic receptors were plated in growth medium lacking G418 and hygromycin at 15,000 cells/20 μL/well in Greiner 384-well black-walled, tissue culture (TC)-treated, clear-bottom plates (VWR). Cells were incubated overnight at 37° C. and 5% CO2. The next day, cells were washed using an ELX 405 (BioTek) with four washes (80 μL) of assay buffer then aspirated to 20 μL. Next, 20 μL of 16 μM Fluo-4/acetoxymethyl ester (Invitrogen, Carlsbad, CA) prepared as a 2.3 mM stock in DMSO and mixed in a 1:1 ratio with 10% (w/v) Pluronic F-127 and diluted in assay buffer was added to the wells and the cell plates were incubated for 50 min at 37° C. and 5% CO2. Dye was removed by washing with the ELX 405 (four […], washes of assay buffer) then aspirated to 20 μL. Compound master plates were formatted in an 11 point CRC format (1:3 dilutions) in 100% DMSO with a starting concentration of 10 mM using the BRAVO liquid handler (Agilent). Test compound CRCs were then transferred to daughter plates (240 nL) using the Echo acoustic plate reformatter (Labcyte, Sunnyvale, CA) and then diluted into assay buffer (40 μL) to a 2× stock using a Thermo Fisher Combi (Thermo Fisher Scientific, Waltham, MA).
Calcium flux was measured using the Functional Drug Screening System (FDSS) 6000 (Hamamatsu Corporation, Tokyo, Japan) as an increase in the fluorescent static ratio. Compounds were applied to cells (20 μL, 2×) using the automated system of the FDSS 6000 at 4 s into the 300 s protocol and the data were collected at 1 Hz. At 144 s into the 300 s protocol, 10 μL of an EC20 concentration of the muscarinic receptor agonist acetylcholine was added (5×), followed by the addition of 12 μL an EC80 concentration of acetylcholine at the 230 s time point (5×). Agonist activity was analyzed as a concentration-dependent increase in calcium mobilization upon compound addition. Emax values for agonist activity are expressed relative to the maximum for acetylcholine. Positive allosteric modulator activity was analyzed as a concentration-dependent increase in the EC20 acetylcholine response. Antagonist activity was analyzed as a concentration-dependent decrease in the EC80 acetylcholine response. Concentration-response curves were generated using a four-parameter logistical equation in XLfit curve fitting software (IDBS, Bridgewater, NJ) for Excel (Microsoft, Redmond, WA) or Prism (GraphPad Software, Inc., San Diego, CA). […]
(In general: Calcium assays in cells follow changes in intracellular calcium, usually with a dye or a luminescent sensor.)

A word on the EC50: it is the concentration giving half of the maximal effect. As a reminder, the Emax is the greatest response seen or fitted, relative to the assay's reference. Regarding `O=C(N[C@H]1CCOC[C@@H]1O)c1cc(Cc2ccc(-n3cccn3)cc2)cc2c1OCO2` [Compound 1, N-[(3R,4S)-3-hydroxytetrahydropyran-4-yl]-6-[(4-pyrazol-1-ylphenyl)methyl]-1,3-benzodioxole-4-carboxamide], the EC50 turned out to be 0.92 µM and the Emax is 81%.

For `O=C(N[C@H]1CCCC[C@@H]1O)c1cc(Cc2ccc(-n3cccn3)cc2)cc2c1OCO2` [Compound 2, N-[(1S,2S)-2-hydroxycyclohexyl]-6-[(4-pyrazol-1-ylphenyl)methyl]-1,3-benzodioxole-4-carboxamide], the EC50 was 0.79 µM and the Emax amounted to 82%.

As to `O=C(NC1CC2(COC2)C1)c1cc(Cc2ccc(-n3cccn3)cc2)cc2c1OCO2` [Compound 3, N-(2-oxaspiro[3.3]heptan-6-yl)-6-[(4-pyrazol-1-ylphenyl)methyl]-1,3-benzodioxole-4-carboxamide], the Emax was determined as 59%.

On to `O=C(N[C@H]1CCC[C@@H]1O)c1cc(Cc2ccc(-n3cccn3)cc2)cc2c1OCO2` [Compound 4, N-[(1S,2S)-2-hydroxycyclopentyl]-6-[(4-pyrazol-1-ylphenyl)methyl]-1,3-benzodioxole-4-carboxamide], for which the EC50 turned out to be 2.48 µM and the Emax is 69%.

For the molecule `O=C(N[C@H]1CC[C@@H]1O)c1cc(Cc2ccc(-n3cccn3)cc2)cc2c1OCO2` [Compound 5, N-[(1S,2S)-2-hydroxycyclobutyl]-6-[(4-pyrazol-1-ylphenyl)methyl]-1,3-benzodioxole-4-carboxamide], the EC50 turned out to be 3.67 µM and the Emax worked out at 55%.

Turning to `O=C(N[C@H]1CCCCC[C@@H]1O)c1cc(Cc2ccc(-n3cccn3)cc2)cc2c1OCO2` [Compound 6, N-[(1S,2S)-2-hydroxycycloheptyl]-6-[(4-pyrazol-1-ylphenyl)methyl]-1,3-benzodioxole-4-carboxamide], the EC50 worked out at 1.04 µM and the Emax was found to be 76%.

For `CC(C)(O)CNC(=O)c1cc(Cc2ccc(-n3cccn3)cc2)cc2c1OCO2` [Compound 7, N-(2-hydroxy-2-methyl-propyl)-6-[(4-pyrazol-1-ylphenyl)methyl]-1,3-benzodioxole-4-carboxamide], the Emax amounted to 61%.

For the molecule `CC1(C)COCCC1NC(=O)c1cc(Cc2ccc(-n3cccn3)cc2)cc2c1OCO2` (centres unmarked) [Compound 8, N-(3,3-dimethyltetrahydropyran-4-yl)-6-[(4-pyrazol-1-ylphenyl)methyl]-1,3-benzodioxole-4-carboxamide], the EC50 was found to be 7.33 µM and the Emax turned out to be 67%.

Turning to `Cn1ccc(-c2ccc(Cc3cc4c(c(C(=O)N[C@H]5CCOC[C@@H]5O)c3)OCO4)cn2)n1` [Compound 9, N-[(3R,4S)-3-hydroxytetrahydropyran-4-yl]-6-[[6-(1-methylpyrazol-3-yl)-3-pyridyl]methyl]-1,3-benzodioxole-4-carboxamide], the EC50 stood at 1.42 µM and the Emax was 75%.

In the case of `Cn1ccc(-c2ccc(Cc3cc4c(c(C(=O)N[C@H]5CCCCC[C@@H]5O)c3)OCO4)cn2)n1` [Compound 10, N-[(1S,2S)-2-hydroxycycloheptyl]-6-[[6-(1-methylpyrazol-3-yl)-3-pyridyl]methyl]-1,3-benzodioxole-4-carboxamide], the EC50 was determined as 1.19 µM and the Emax amounted to 74%.

With `Cn1ccc(-c2ccc(Cc3cc4c(c(C(=O)N[C@H]5CCCC[C@@H]5O)c3)OCO4)cn2)n1` [Compound 11, N-[(1S,2S)-2-hydroxycyclohexyl]-6-[[6-(1-methylpyrazol-3-yl)-3-pyridyl]methyl]-1,3-benzodioxole-4-carboxamide], the EC50 worked out at 0.81 µM and the Emax is 76%.

In the case of `Cn1ccc(-c2ccc(Cc3cc4c(c(C(=O)N[C@H]5CCC[C@@H]5O)c3)OCO4)cn2)n1` [Compound 12, N-[(1S,2S)-2-hydroxycyclopentyl]-6-[[6-(1-methylpyrazol-3-yl)-3-pyridyl]methyl]-1,3-benzodioxole-4-carboxamide], the EC50 was 6.44 µM and the Emax was determined as 74%.

Take `Cn1ccc(-c2ccc(Cc3cc4c(c(C(=O)N[C@H]5CC[C@@H]5O)c3)OCO4)cn2)n1` [Compound 13, N-[(1S,2S)-2-hydroxycyclobutyl]-6-[[6-(1-methylpyrazol-3-yl)-3-pyridyl]methyl]-1,3-benzodioxole-4-carboxamide]: the Emax was 65%.

On to `Cn1ccc(-c2ccc(Cc3cc4c(c(C(=O)NC5CC6(COC6)C5)c3)OCO4)cn2)n1` [Compound 14, 6-[[6-(1-methylpyrazol-3-yl)-3-pyridyl]methyl]-N-(2-oxaspiro[3.3]heptan-6-yl)-1,3-benzodioxole-4-carboxamide], for which the Emax came to 57%.

As for `Cn1ccc(-c2ccc(Cc3cc4c(c(C(=O)NC5CCOCC5)c3)OCO4)cn2)n1` [Compound 15, 6-[[6-(1-methylpyrazol-3-yl)-3-pyridyl]methyl]-N-tetrahydropyran-4-yl-1,3-benzodioxole-4-carboxamide], the Emax came out at 49%.

With `Cc1nc(-c2ccc(Cc3cc4c(c(C(=O)N[C@H]5CCOC[C@@H]5O)c3)OCO4)cc2)co1` [Compound 16, N-[(3R,4S)-3-hydroxytetrahydropyran-4-yl]-6-[[4-(2-methyloxazol-4-yl)phenyl]methyl]-1,3-benzodioxole-4-carboxamide], the EC50 worked out at 1.81 µM and the Emax turned out to be 78%.

For `Cc1nc(-c2ccc(Cc3cc4c(c(C(=O)N[C@H]5CCCC[C@@H]5O)c3)OCO4)cc2)co1` [Compound 17, N-[(1S,2S)-2-hydroxycyclohexyl]-6-[[4-(2-methyloxazol-4-yl)phenyl]methyl]-1,3-benzodioxole-4-carboxamide], the EC50 was 1.15 µM and the Emax was 66%.

Regarding `Cc1c(Cc2ccc(-n3cccn3)cc2)cc(C(=O)N[C@H]2CCOC[C@@H]2O)c2c1OCO2` [Compound 18, N-[(3R,4S)-3-hydroxytetrahydropyran-4-yl]-7-methyl-6-[(4-pyrazol-1-ylphenyl)methyl]-1,3-benzodioxole-4-carboxamide], the EC50 stood at 0.26 µM and the Emax turned out to be 75%.

On to `Cc1c(Cc2ccc(-n3cccn3)cc2)cc(C(=O)N[C@H]2CCCC[C@@H]2O)c2c1OCO2` [Compound 19, N-[(1S,2S)-2-hydroxycyclohexyl]-7-methyl-6-[(4-pyrazol-1-ylphenyl)methyl]-1,3-benzodioxole-4-carboxamide], for which the EC50 came out at 0.42 µM and the Emax was found to be 78%.

Regarding `Cc1c(Cc2ccc(-c3ccn(C)n3)cc2)cc(C(=O)N[C@H]2CCOC[C@@H]2O)c2c1OCO2` [Compound 20, N-[(3R,4S)-3-hydroxytetrahydropyran-4-yl]-7-methyl-6-[[4-(1-methylpyrazol-3-yl)phenyl]methyl]-1,3-benzodioxole-4-carboxamide], the EC50 is 0.33 µM and the Emax amounted to 88%.

The record behind these values is US12065433B2, “Positive allosteric modulators of the muscarinic acetylcholine receptor M1” (Vanderbilt University, priority 2018, dated 2024).
